In US8871767B2, “2-arylimidazo[1,2-B]pyridazine, 2-phenylimidazo[1,2-A]pyridine, and 2-phenylimidazo[1,2-A]pyrazine derivatives” (Hengrui (USA) Ltd., priority 2010, dated 2014):
Read-outs that look alike come from different tables or passages of the source.

Assays:
[1] = system: Hedgehog pathway activation (GLi-luciferase reporter) in Shh Light II reporter cells; experiment: Hedgehog pathway activation on Shh Light II reporter cells measured by luciferase activity; format: cell-based; details: Mus musculus, Shh Light II
Procedure, shortened: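 Shh Light II reporter cells carrying a hedgehog-responsive GLi-luciferase reporter were stimulated either with 500 nM SAG, a direct Smoothened agonist, or with conditioned media containing human Sonic Hedgehog (hShh). Test compounds were evaluated for blocking this pathway activation, quantified by luciferase activity. Cell viability was monitored in parallel with the Celltiter-Blue® assay.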

[2] = system: Hedgehog pathway activation on 10T1/2/Smo#3 cells (C3H10T1/2 cells transfected with human Smoothened receptor); experiment: Hedgehog pathway activation on 10T1/2/Smo#3 cells measured by ALP activity; format: cell-based; details: Mus musculus, C3H 10T1/2, 10T1/2/Smo#3 cells
Procedure, shortened: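 C3H10T1/2 cells stably expressing human Smoothened were activated with hShh-conditioned medium (10-20%) or 500 nM SAG, with test compounds present. Pathway block read as inhibited ALP activity (4-methylumbelliferyl phosphate fluorescence); viability checked by CellTiter-Blue. IC50 values reported.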

[3] = hShh activation, read-out: Shh (IC50, inhibition of Hedgehog pathway activation)
[4] = measured by ALP activity, read-out: ALP (IC50, inhibition of Hedgehog pathway activation)
[5] = SAG activation (500 nM SAG), read-out: Shh Light II luciferase activity (SAG activation)
[6] = hShh activation, read-out: Shh Light II luciferase activity (hShh activation)
[7] = hShh activation, ALP activity, read-out: 10T1/2/Smo#3 ALP activity (hShh Activation)

| IC50 [1, 3] [nM] | IC50 [2, 4] [nM] | IC50 [1, 5] [nM] | IC50 [1, 6] [nM] | IC50 [2, 7] [nM] | SMILES |
| --- | --- | --- | --- | --- | --- |
| 47 | 19 |  |  |  | CC(C)(C)C(=O)Nc1cc(-c2cn3nc(-c4cccnc4C(F)(F)F)ccc3n2)ccc1C(F)(F)F [Example 292, N-(2-(trifluoromethyl)-5-(6-(2-(trifluoromethyl)pyridin-3-yl)imidazo[1,2-b]pyridazin-2-yl)phenyl)pivalamide] |
| 310 | 221 |  |  |  | Cc1ncccc1-c1ccc2nc(-c3ccc(C(F)(F)F)c(NC(=O)C(C)(C)C)c3)cn2n1 [Example 293, N-(5-(6-(2-methylpyridin-3-yl)imidazo[1,2-b]pyridazin-2-yl)-2-(trifluoromethyl)phenyl)pivalamide] |
| 256 | 254 |  |  |  | CC1CCCCN1c1ccc2nc(-c3ccc(C(F)(F)F)c(NC(=O)C(C)(C)C)c3)cn2n1 (stereo not shown) [Example 294, N-(5-(6-(2-methylpiperidin-1-yl)imidazo[1,2-b]pyridazin-2-yl)-2-(trifluoromethyl)phenyl)pivalamide] |
| 320 | 326 | 300 to 3000 | < 300 | < 300 | CCc1ccc(-c2cn3nc(-c4ccccc4F)ccc3n2)cc1NC(=O)C(C)(C)C [Example 295, N-(2-ethyl-5-(6-(2-fluorophenyl)imidazo[1,2-b]pyridazin-2-yl)phenyl)pivalamide] |
| 311 | 226 |  |  |  | CCc1ccc(-c2cn3nc(-c4ccccc4C#N)ccc3n2)cc1NC(=O)C(C)(C)C [Example 296, N-(5-(6-(2-cyanophenyl)imidazo[1,2-b]pyridazin-2-yl)-2-ethylphenyl)pivalamide] |
| 452 | 463 |  |  |  | CC(C)(C)OC(=O)NC1CCN(c2ccc3nc(-c4ccc(C(F)(F)F)c(NC(=O)C(C)(C)C)c4)cn3n2)C1 (stereo not shown) [Example 297, tert-butyl 1-(2-(3-pivalamido-4-(trifluoromethyl)phenyl)imidazo[1,2-b]pyridazin-6-yl)pyrrolidin-3-ylcarbamate] |
| 403 | 612 |  |  |  | CN(CCO)c1ccc2nc(-c3ccc(C(F)(F)F)c(NC(=O)C(C)(C)C)c3)cn2n1 [Example 298, N-(5-(6-((2-hydroxyethyl)(methyl)amino)imidazo[1,2-b]pyridazin-2-yl)-2-(trifluoromethyl)phenyl)pivalamide] |
| 338 | 478 |  |  |  | COCCN(C)c1ccc2nc(-c3ccc(C(F)(F)F)c(NC(=O)C(C)(C)C)c3)cn2n1 [Example 299, N-(5-(6-((2-methoxyethyl)(methyl)amino)imidazo[1,2-b]pyridazin-2-yl)-2-(trifluoromethyl)phenyl)pivalamide] |
| 535 | 703 | < 300 | 300 to 3000 | 300 to 3000 | CSCCNc1ccc2nc(-c3ccc(C(F)(F)F)c(NC(=O)C(C)(C)C)c3)cn2n1 [Example 300, N-(5-(6-(2-(methylthio)ethylamino)imidazo[1,2-b]pyridazin-2-yl)-2-(trifluoromethyl)phenyl)pivalamide] |
| 406 | 1060 |  |  |  | CC(C)(C)C(=O)Nc1cc(-c2cn3nc(NC4CCCC4)ccc3n2)ccc1C(F)(F)F [Example 301, N-(5-(6-(cyclopentylamino)imidazo[1,2-b]pyridazin-2-yl)-2-(trifluoromethyl)phenyl)pivalamide] |
| 522 | 443 |  |  |  | CC(C)CNc1ccc2nc(-c3ccc(C(F)(F)F)c(NC(=O)C(C)(C)C)c3)cn2n1 [Example 302, N-(5-(6-(isobutylamino)imidazo[1,2-b]pyridazin-2-yl)-2-(trifluoromethyl)phenyl)pivalamide] |
| 994 | 783 | 300 to 3000 | 300 to 3000 | 300 to 3000 | CCC(CO)Nc1ccc2nc(-c3ccc(C(F)(F)F)c(NC(=O)C(C)(C)C)c3)cn2n1 (stereo not shown) [Example 303, N-(5-(6-(1-hydroxybutan-2-ylamino)imidazo[1,2-b]pyridazin-2-yl)-2-(trifluoromethyl)phenyl)pivalamide] |
| 559 | 393 |  |  |  | CC(C)(C)C(=O)Nc1cc(-c2cn3nc(NCCO)ccc3n2)ccc1C(F)(F)F [Example 304, N-(5-(6-(2-hydroxyethylamino)imidazo[1,2-b]pyridazin-2-yl)-2-(trifluoromethyl)phenyl)pivalamide] |
| 1890 | 3500 |  |  |  | CN1CCC(Oc2ccc3nc(-c4ccc(C(F)(F)F)c(NC(=O)C(C)(C)C)c4)cn3n2)CC1 [Example 305, N-(5-(6-(1-methylpiperidin-4-yloxy)imidazo[1,2-b]pyridazin-2-yl)-2-(trifluoromethyl)phenyl)pivalamide] |
| 402 | 446 |  |  |  | CC(C)(C)C(=O)Nc1cc(-c2cn3nc(OCCN4CCOCC4)ccc3n2)ccc1C(F)(F)F [Example 306, N-(5-(6-(2-morpholinoethoxy)imidazo[1,2-b]pyridazin-2-yl)-2-(trifluoromethyl)phenyl)pivalamide] |

Further lines, the molecule ahead of its results:

| SMILES | IC50 [1, 3] [nM] | IC50 [2, 4] [nM] | IC50 [1, 5] [nM] | IC50 [1, 6] [nM] | IC50 [2, 7] [nM] |
| --- | --- | --- | --- | --- | --- |
| Cc1ccc(-c2cn3nc(-c4cc(C#N)ccc4F)ccc3n2)cc1NC(=O)C(C)(C)C [Example 274, N-(5-(6-(5-cyano-2-fluorophenyl)imidazo[1,2-b]pyridazin-2-yl)-2-methylphenyl)pivalamide] | 144 | 20 |  |  |  |
| Cc1ccc(-c2cn3nc(-c4cccnc4C)ccc3n2)cc1NC(=O)C(C)(C)C [Example 278, N-(2-methyl-5-(6-(2-methylpyridin-3-yl)imidazo[1,2-b]pyridazin-2-yl)phenyl)pivalamide] | 162 | 228 |  |  |  |
| Cc1ccc(-c2cn3nc(-c4cc(Cl)cnc4F)ccc3n2)cc1NC(=O)C(C)(C)C [Example 279, N-(5-(6-(5-chloro-2-fluoropyridin-3-yl)imidazo[1,2-b]pyridazin-2-yl)-2-methylphenyl)pivalamide] | 282 | 129 |  |  |  |
| Cc1ccc(-c2cn3nc(-c4ccc(F)nc4F)ccc3n2)cc1NC(=O)C(C)(C)C [Example 280, N-(5-(6-(2,6-difluoropyridin-3-yl)imidazo[1,2-b]pyridazin-2-yl)-2-methylphenyl)pivalamide] | 475 | 236 |  |  |  |
| Cc1ccc(-c2cn3nc(-c4cc(F)ccc4C(F)(F)F)ccc3n2)cc1NC(=O)C(C)(C)C [Example 281, N-(5-(6-(5-fluoro-2-(trifluoromethyl)phenyl)imidazo[1,2-b]pyridazin-2-yl)-2-methylphenyl)pivalamide] | 72 | 38 |  |  |  |
| CCOc1ccc2nc(-c3ccc(CC)c(NC(=O)C(C)(C)C)c3)cn2n1 [Example 283, N-(5-(6-ethoxyimidazo[1,2-b]pyridazin-2-yl)-2-ethylphenyl)pivalamide] | 2230 | 1820 | 3000 to 30000 | 300 to 3000 | 300 to 3000 |
| Cc1ccc(-c2cn3nc(-c4cccnc4C(F)(F)F)ccc3n2)cc1NC(=O)C(C)(C)C [Example 284, N-(2-methyl-5-(6-(2-(trifluoromethyl)pyridin-3-yl)imidazo[1,2-b]pyridazin-2-yl)phenyl)pivalamide] | 57 | 29 | < 300 | < 300 | < 300 |
| Cc1ccc(-c2cn3nc(N4CCS(=O)(=O)CC4)ccc3n2)cc1NC(=O)C(C)(C)C [Example 285, N-{5-[6-(1,1-dioxidothiomorpholin-4-yl)imidazo[1,2-b]pyridazin-2-yl]-2-methylphenyl}-2,2-dimethylpropanamide] | 788 | 1010 |  |  |  |
| Cc1ccc(-c2cn3nc(N4CCC(O)CC4)ccc3n2)cc1NC(=O)C(C)(C)C [Example 286, N-(5-(6-(4-hydroxypiperidin-1-yl)imidazo[1,2-b]pyridazin-2-yl)-2-methylphenyl)pivalamide] | 193 | 127 |  |  |  |
| CC(C)(C)C(=O)Nc1cc(-c2cn3nc(N4CCS(=O)(=O)CC4)ccc3n2)ccc1C(F)(F)F [Example 287, N-{5-[6-(1,1-dioxidothiomorpholin-4-yl)imidazo[1,2-b]pyridazin-2-yl]-2-(trifluoromethyl)phenyl}-2,2-dimethylpropanamide] | 491 | 462 |  |  |  |
| CC(C)(C)C(=O)Nc1cc(-c2cn3nc(N4CCCCC4)ccc3n2)ccc1C(F)(F)F [Example 288, N-(5-(6-(piperidin-1-yl)imidazo[1,2-b]pyridazin-2-yl)-2-(trifluoromethyl)phenyl)pivalamide] | 345 | 258 |  |  |  |
| CC(=O)Nc1ccccc1-c1ccc2nc(-c3ccc(C)c(NC(=O)C(C)(C)C)c3)cn2n1 [Example 289, N-(5-(6-(2-acetamidophenyl)imidazo[1,2-b]pyridazin-2-yl)-2-methylphenyl)pivalamide] | 284 | 90 |  |  |  |
| Cc1ccc(-c2cn3nc(-c4cccc(N(C)C)c4)ccc3n2)cc1NC(=O)C(C)(C)C [Example 290, N-(5-(6-(3-(dimethylamino)phenyl)imidazo[1,2-b]pyridazin-2-yl)-2-methylphenyl)pivalamide] | 321 | 296 |  |  |  |
| CC(C)(C)C(=O)Nc1cc(-c2cn3nc(-c4cc(F)ccc4C(F)(F)F)ccc3n2)ccc1C(F)(F)F [Example 291, N-(5-(6-(5-fluoro-2-(trifluoromethyl)phenyl)imidazo[1,2-b]pyridazin-2-yl)-2-(trifluoromethyl)phenyl)pivalamide] | 289 | 325 |  |  |  |
